Like-named read-outs stand apart in the source and are kept apart here.
Tests used:
rSERT [1] = molecular target: T1, rSERT (Rattus norvegicus, UniProt P31652); assay: Uptake inhibition assay ([3H]5-HT) in rat brain synaptosomes; type: biochemical; design: As a means to evaluate transporter activity of prolintane analogs in native tissue preparation; from tissue; host or cells: rat brain synaptosomes (whole brain minus caudate and cerebellum)
Procedure: Rats were killed by CO2 narcosis and decapitated, then synaptosomes were prepared from brains using standard procedures. In brief, synaptosomes were prepared from caudate tissue for rat DAT (rDAT) assays, or from whole brain minus caudate and cerebellum for rat NET (rNET) and rat SERT (rSERT) assays. Brain tissue was homogenized in ice-cold 10% sucrose followed by centrifugation at 1000g for 10 min. The resulting supernatant containing crude synaptosomes was kept on ice until use in uptake or release procedures. Uptake inhibition and release assays were carried out as previously described ([62], [63]).
For uptake inhibition assays, 5 nM [^3H]dopamine, 10 nM [^3H]norepinephrine, or 5 nM [^3H]5-HT was used as the radiolabeled transmitter for rDAT, rNET, or rSERT, respectively. To optimize uptake for a single transporter, unlabeled blockers were included that prevented uptake of [^3H]transmitter by competing transporters: 50 nM GBR 12935 was added to NET and SERT assays to block DAT, 100 nM nomifensine was added to SERT assays to block NET. Uptake assays were initiated by adding 100 μl of tissue to 900 μl Krebs-phosphate buffer (126 mM NaCl, 2.4 mM KCl, 0.83 mM CaCl2, 0.8 mM MgCl2, 0.5 mM KH2PO4, 0.5 mM Na2SO4, 11.1 mM glucose, 0.05 mM pargyline, 1 mg/ml bovine serum albumin, and 1 mg/ml ascorbic acid, pH 7.4) containing test drug and [^3H]transmitter. Uptake assays were terminated by rapid vacuum filtration, and retained radioactivity was quantified with liquid scintillation counting.
Effects of test drugs on release and uptake inhibition were analyzed by nonlinear regression using GraphPad Prism 9 (GraphPad Scientific, San Diego, CA, USA). Concentration–response values for the uptake inhibition and release were fit to the equation, Y(x)=Ymin+Ymax−Ymin/1+10^((LogP50−LogX)·n) , where x is the concentration of the compound tested, Y(x) is the response measured, Ymax is the maximal response, P50 is either IC50 (the concentration that yields half-maximal uptake inhibition response) or EC50 (the concentration that yields half-maximal release response), and n is the Hill slope parameter.

hSERT = molecular target: T2, hSERT (Homo sapiens, UniProt P31645); design: method as in PMID 30397775; conditions: cited from earlier work
T2 construct: expressed in transfected cells

rSERT [2] = molecular target: T1, rSERT; type: cell-based; design: expressed in transfected cells; conditions: for Mean diff, rSERT efflux ± Mon (Šídák's multiple comparisons test): drug alone vs drug + monensin (Mon)
Procedure: A day prior to the experiment, HEK293 cells stably expressing hSERT or rat SERT (rSERT) were seeded at a density of 100,000 cells per channel into 6 channel flow ibidi slides (Gräfelfing, Germany). On the day of the experiments, cells were preloaded with 0.1 μM [^3H]5-HT at 37 °C, 5% CO2 for 20 min. Subsequently, the slides were transferred to the superfusion apparatus ([59]). Cells were then washed with KHB for 15 min under a constant flow of 0.5 ml/min. Fractions were collected every 2 min in 8 ml vials containing 2 ml scintillation cocktail. Collection began with three baseline fractions using KHB, followed by four additional basal release fractions with KHB, either with or without 10 μM monensin. […] To assess residual radioactivity within the cells, they were lysed with 1% sodium dodecyl sulfate (SDS), and three final fractions were obtained. The measured tritiated substrate in each fraction was expressed as a percentage of the initial tritiated substrate present at the start of that fraction.
Uptake inhibition data were evaluated by one-way ANOVA followed by Tukey's multiple comparisons test. Release data were analyzed using a two-way ANOVA (batch release) or a mixed-effects model with Geisser-Greenhouse correction (time-dependent traces) employing Šidák correction for comparing differences between compounds with or without the addition of monensin.

humans = test system: humans; design: method as in PMID 4392006, PMID 7437258; conditions: dose range of 10–30 mg ref 15, 16; cited from earlier work
native HEK293 cells = assay: Whole-cell patch-clamp control in native HEK293 cells without transfection; type: cell-based, human; conditions: prolintane 30 µM, 5-HT 10 µM (Fig. S3)
Procedure: One day prior to recording, either native HEK293 cells or HEK293 cells stably expressing monoamine transporters were seeded at low density onto PDL-coated 35 mm dishes. Patch-clamp experiments were conducted at a holding potential of −60 mV, with substrate-induced currents recorded at room temperature (20–24 °C) using an […] amplifier and pClamp 11.2 software (MDS Analytical Technologies). During recordings, cells were continuously superfused via a DAD-12 perfusion system and an 8-tube manifold (ALA Scientific Instruments), delivering an external solution composed of 140 mM NaCl, 2.5 mM CaCl2, 3 mM KCl, 2 mM MgCl2, 20 mM glucose, and 10 mM HEPES, with pH adjusted to 7.3 using NaOH. The intracellular pipette solution, designed to mimic physiological ionic conditions, contained 133 mM potassium gluconate, 5.9 mM NaCl, 1 mM CaCl2, 0.7 mM MgCl2, 10 mM HEPES, and 10 mM EGTA, with pH set to 7.2 using KOH. Currents were filtered at 1 kHz and digitized at 10 kHz via a Digidata 1550 digitizer (MDS Analytical Technologies), followed by analysis in Clampfit 10.2 (Molecular Devices). Substance-induced currents were normalized to the current elicited by a saturating concentration of 5-HT (10 μM) of the same cell. Holding currents were subtracted, and a 50 Hz digital Gaussian low-pass filter was applied to the traces for further analysis.

mice = test system: mice; design: method as in PMID 34896117; conditions: moderate and high doses ref 2; cited from earlier work

T1 sequence (P31652 whole entry): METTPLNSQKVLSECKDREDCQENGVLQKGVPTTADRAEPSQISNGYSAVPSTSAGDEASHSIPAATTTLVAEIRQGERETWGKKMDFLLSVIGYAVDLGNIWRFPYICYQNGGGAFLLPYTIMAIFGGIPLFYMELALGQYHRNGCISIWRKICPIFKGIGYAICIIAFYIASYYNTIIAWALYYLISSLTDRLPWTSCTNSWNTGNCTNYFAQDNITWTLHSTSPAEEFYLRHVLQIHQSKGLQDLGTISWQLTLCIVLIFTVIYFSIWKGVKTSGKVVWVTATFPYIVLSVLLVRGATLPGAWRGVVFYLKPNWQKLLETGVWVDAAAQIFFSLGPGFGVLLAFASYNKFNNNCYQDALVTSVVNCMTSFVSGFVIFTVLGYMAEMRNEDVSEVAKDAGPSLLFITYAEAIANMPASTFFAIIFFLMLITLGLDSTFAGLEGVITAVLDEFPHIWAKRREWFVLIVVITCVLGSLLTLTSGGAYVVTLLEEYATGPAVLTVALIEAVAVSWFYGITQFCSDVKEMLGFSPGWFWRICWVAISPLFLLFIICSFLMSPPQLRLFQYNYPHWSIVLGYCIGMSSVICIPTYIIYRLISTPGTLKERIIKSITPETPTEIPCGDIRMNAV
T2 sequence (P31645 whole entry): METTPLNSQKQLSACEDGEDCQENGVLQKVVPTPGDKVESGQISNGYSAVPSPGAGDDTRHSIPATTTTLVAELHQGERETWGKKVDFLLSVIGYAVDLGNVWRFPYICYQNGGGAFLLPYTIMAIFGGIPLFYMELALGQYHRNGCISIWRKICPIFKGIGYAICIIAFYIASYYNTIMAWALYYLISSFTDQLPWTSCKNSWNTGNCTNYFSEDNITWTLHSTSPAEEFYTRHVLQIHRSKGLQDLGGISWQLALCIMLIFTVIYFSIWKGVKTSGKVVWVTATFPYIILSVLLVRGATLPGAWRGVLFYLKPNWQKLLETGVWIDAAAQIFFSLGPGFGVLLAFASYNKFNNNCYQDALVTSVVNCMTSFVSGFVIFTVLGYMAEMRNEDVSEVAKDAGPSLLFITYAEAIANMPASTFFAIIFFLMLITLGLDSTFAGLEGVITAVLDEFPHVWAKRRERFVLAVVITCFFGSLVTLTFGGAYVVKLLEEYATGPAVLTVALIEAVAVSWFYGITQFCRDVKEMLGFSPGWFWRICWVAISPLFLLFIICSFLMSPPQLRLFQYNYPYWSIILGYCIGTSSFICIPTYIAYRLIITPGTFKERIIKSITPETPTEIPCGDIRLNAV

CCCC(Cc1ccccc1C)N1CCCC1 (centres unmarked) [2-Methylprolintane, 1-[1-(2-methylphenyl)pentan-2-yl]pyrrolidine]
IC50 (rSERT [1]; read-out: [3H]5-HT uptake SERT IC50, rat isoform (r), rat brain synaptosomes, mean ± SD): 323 ± 280 nM

CCCC(Cc1cccc(F)c1)N1CCCC1 (centres unmarked) [3-Fluoroprolintane, 1-[1-(3-fluorophenyl)pentan-2-yl]pyrrolidine]
IC50 (rSERT [1]): 521 ± 116 nM

CCCC(Cc1ccccc1)N1CCCC1 (centres unmarked) [Prolintane, 1-(1-phenylpentan-2-yl)pyrrolidine]
effects at hSERT, fold weaker than at hDAT and hNET (hSERT): approximately 10 fold | Mean diff, rSERT efflux ± Mon (Šídák's multiple comparisons test) (rSERT [2]; Row 1 (time fraction)): -0.3272 | Mean diff, rSERT efflux ± Mon (Šídák's multiple comparisons test) (rSERT [2]; Row 2 (time fraction)): -0.2896 | Mean diff, rSERT efflux ± Mon (Šídák's multiple comparisons test) (rSERT [2]; Row 3 (time fraction)): -0.1547 | Mean diff, rSERT efflux ± Mon (Šídák's multiple comparisons test) (rSERT [2]; Row 4 (time fraction)): -0.119 | Mean diff, rSERT efflux ± Mon (Šídák's multiple comparisons test) (rSERT [2]; Row 5 (time fraction)): -0.6706 | Mean diff, rSERT efflux ± Mon (Šídák's multiple comparisons test) (rSERT [2]; Row 6 (time fraction)): -0.9234 | Mean diff, rSERT efflux ± Mon (Šídák's multiple comparisons test) (rSERT [2]; Row 7 (time fraction)): -1.427 | Mean diff, rSERT efflux ± Mon (Šídák's multiple comparisons test) (rSERT [2]; Row 8 (time fraction)): -2.621 | Mean diff, rSERT efflux ± Mon (Šídák's multiple comparisons test) (rSERT [2]; Row 9 (time fraction)): -2.612 | Mean diff, rSERT efflux ± Mon (Šídák's multiple comparisons test) (rSERT [2]; Row 10 (time fraction)): -2.362 | Mean diff, rSERT efflux ± Mon (Šídák's multiple comparisons test) (rSERT [2]; Row 11 (time fraction)): -2.416 | Mean diff, rSERT efflux ± Mon (Šídák's multiple comparisons test) (rSERT [2]; Row 12 (time fraction)): -2.279 | [3H]5-HT releasing profile in cells expressing rSERT (rSERT [2]; superfusion, HEK293 cells, with and without monensin): almost identical pseudo-efflux releasing profile | clinical effects (humans): dose-dependent psychostimulant effects, sympathomimetic effects and reduced total rapid eye movement (REM) sleep | current in native HEK293 cells without transfection (native HEK293 cells): do not induce currents | current in native HEK293 cells without transfection (native HEK293 cells; listed as prolintane): no current could be recorded | abuse-related behavioural effects (mice): rewarding and reinforcing effects | IC50 (rSERT [1]): 2320 ± 169 nM | IC50 at rSERT, fold weaker than at rDAT and rNET (rSERT [1]; rat brain synaptosomes): about 50 fold

CCCC(Cc1ccc(C)cc1)N1CCCC1 (centres unmarked) [4-Methylprolintane, 1-[1-(4-methylphenyl)pentan-2-yl]pyrrolidine]
IC50 (rSERT [1]): 72 ± 5 nM

CCCC(Cc1cccc(C)c1)N1CCCC1 (centres unmarked) [3-Methylprolintane, 1-[1-(3-methylphenyl)pentan-2-yl]pyrrolidine]
IC50 (rSERT [1]): 139 ± 14 nM

CCCC(Cc1ccccc1F)N1CCCC1 (centres unmarked) [2-Fluoroprolintane, 1-[1-(2-fluorophenyl)pentan-2-yl]pyrrolidine]
IC50 (rSERT [1]): 2230 ± 152 nM

CCCC(Cc1ccc(F)cc1)N1CCCC1 (centres unmarked) [4-Fluoroprolintane, 1-[1-(4-fluorophenyl)pentan-2-yl]pyrrolidine]
IC50 (rSERT [1]): 884 ± 78 nM
